Data as given in patent US20210139484A1, “DIHYDROISOQUINOLINE-2(1H)-CARBOXAMIDE AND RELATED COMPOUNDS AND THEIR USE IN TREATING MEDICAL CONDITIONS” (GOSSAMER BIO SERVICES, INC., priority 2018, published 2021).

Molecular target: T1, human HPK1 protein (Homo sapiens, UniProt Q92918)
T1 construct: recombinant human HPK1 protein (a.a. 1-346) was expressed in Sf9 insect cells; GST (N); purchased Signalchem M23-11G; host or cells: Sf9 insect cells (baculovirus)
T1 sequence (Q92918 1-346): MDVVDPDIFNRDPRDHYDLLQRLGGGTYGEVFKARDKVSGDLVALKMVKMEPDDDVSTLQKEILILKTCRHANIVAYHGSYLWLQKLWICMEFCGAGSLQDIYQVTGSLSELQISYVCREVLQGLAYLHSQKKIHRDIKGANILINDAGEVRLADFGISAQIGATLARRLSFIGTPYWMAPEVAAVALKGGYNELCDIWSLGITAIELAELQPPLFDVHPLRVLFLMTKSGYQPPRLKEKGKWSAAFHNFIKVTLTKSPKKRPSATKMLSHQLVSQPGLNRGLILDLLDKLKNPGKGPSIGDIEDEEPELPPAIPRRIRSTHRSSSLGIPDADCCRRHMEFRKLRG
Test: Human HPK1 protein TR-FRET assay
Assay type: biochemical
Settings: 1 mM ATP, Table 20
How it was run: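 GST-tagged HPK1 (a.a. 1-346, Sf9-expressed) at 10 nM phosphorylated 100 nM ULight CREBtide with 1 mM ATP in Tris pH 7.5, MgCl2, NP-40, DTT, 1% DMSO, 60 minutes at room temperature. Phospho-Ser133 detected by Eu-antibody TR-FRET (665/615 nm ratio); IC50 from 4-parameter fit against DMSO control.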

Compound | IC50 [nM]
CN1CCC(Oc2ncc(NC(=O)N3CCc4ccc(Oc5c(F)cnc6[nH]c(-c7cnn(C)c7)cc56)cc4C3)cc2C(F)(F)F)CC1 [XII-13] | < 500
Cn1cc(-c2cc3c(Oc4ccc5c(c4)CN(C(=O)Nc4ccc(CN6CCN(CCO)CC6)c(C(F)(F)F)c4)CC5)c(F)cnc3[nH]2)cn1 [XII-14] | < 500
CCN1CCN(Cc2ccc(NC(=O)N3CCc4ccc(Oc5c(F)cnc6[nH]c(-c7cnn(C)c7)cc56)cc4C3)cc2C(F)(F)F)CC1 [XII-15] | < 500
CN1CCN(Cc2cc(F)c(NC(=O)N3CCc4ccc(Oc5c(F)cnc6[nH]c(-c7cnn(C)c7)cc56)cc4C3)cc2C(F)(F)F)CC1 [XII-16] | < 500
CC[C@@H]1CN(C)CC[C@H]1Oc1ncc(NC(=O)N2CCc3ccc(Oc4ccnc5[nH]c(C)cc45)cc3[C@@H]2C)cc1C(F)(F)F [XIII-1] | < 500
CCN1CCN(Cc2ccc(NC(=O)N3CCc4ccc(Oc5ccnc6[nH]c(CO)cc56)cc4[C@@H]3C)cc2C(F)(F)F)CC1 [XIII-2] | < 500
C[C@H]1c2cc(Oc3ccnc4[nH]c(CO)cc34)ccc2CCN1C(=O)Nc1cnc(OC2CCN(C)CC2)c(C(F)(F)F)c1 [XIII-3] | < 500
C[C@H]1c2cc(Oc3ccnc4[nH]c(C5(O)COC5)cc34)ccc2CCN1C(=O)Nc1cnc(OC2CCN(C)CC2)c(C(F)(F)F)c1 [XIII-4] | < 500
C[C@H]1c2cc(Oc3ccnc4[nH]c(CO)cc34)ccc2CCN1C(=O)Nc1ccc(CN2CCN(CCO)CC2)c(C(F)(F)F)c1 [XIII-5] | < 500
C[C@H]1c2cc(Oc3ccnc4[nH]c(C5(O)COC5)cc34)ccc2CCN1C(=O)Nc1ccc(CN2CCN(CCO)CC2)c(C(F)(F)F)c1 [XIII-6] | < 500
C[C@H]1c2cc(Oc3ccnc4[nH]c(C5(O)COC5)cc34)ccc2CCN1C(=O)Nc1ccc(CN2CCNCC2)c(C(F)(F)F)c1 [XIII-7] | < 500
C[C@H]1c2cc(Oc3ccnc4[nH]c(CO)cc34)ccc2CCN1C(=O)Nc1ccc(CN2CCNCC2)c(C(F)(F)F)c1 [XIII-8] | < 500
C[C@H]1c2cc(Oc3ccnc4[nH]c(CO)cc34)ccc2CCN1C(=O)Nc1ccc(CN2CCN(C)CC2)c(C(F)F)c1 [XIII-9] | < 500
C[C@H]1c2cc(Oc3ccnc4[nH]c(C5(O)COC5)cc34)ccc2CCN1C(=O)Nc1ccc(CN2CCN(C)CC2)c(C(F)F)c1 [XIII-10] | < 500
C[C@H]1c2cc(Oc3ccnc4[nH]c(C5(O)COC5)cc34)ccc2CCN1C(=O)Nc1ccc(CN2CCN(CCO)CC2)c(C(F)F)c1 [XIII-11] | < 500
C[C@H]1c2cc(Oc3ccnc4[nH]c(CO)cc34)ccc2CCN1C(=O)Nc1ccc(CN2CCN(CCO)CC2)c(C(F)F)c1 [XIII-12] | < 500
CCN1CCN(Cc2ccc(NC(=O)N3CCc4ccc(Oc5cc(NC(=O)OC)ncc5F)cc4[C@@H]3C)cc2C(F)(F)F)CC1 [XIII-13] | < 500

Compound | IC50 [nM]
CCN1CCN(Cc2ccc(NC(=O)N3CCc4ccc(Oc5cc(NC(=O)c6ccnnc6)ncc5F)cc4[C@@H]3C)cc2C(F)(F)F)CC1 [XIII-14] | < 500
CCN1CCN(Cc2ccc(NC(=O)N3CCc4ccc(Oc5cc(NC(=O)C6CC6)ncc5F)cc4[C@@H]3C)cc2C(F)(F)F)CC1 [XIII-15] | < 500
CCN1CCN(Cc2ccc(NC(=O)N3CCc4ccc(Oc5c(F)cnc6[nH]c(C7(O)COC7)cc56)cc4[C@@H]3C)cc2C(F)(F)F)CC1 [XIII-16] | < 500
CCN1CCN(Cc2ccc(NC(=O)N3CCc4ccc(Oc5cc(NC(=O)c6cnn(C)c6)ncc5F)cc4[C@@H]3C)cc2C(F)(F)F)CC1 [XIII-17] | < 500
CCC1CN(C(=O)Nc2ccc(CN3CCN(CC)CC3)c(C(F)(F)F)c2)Cc2cc(Oc3ncnc4[nH]c(C)cc34)cnc21 (centres unmarked) [XIV-3] | < 500
CCC1CN(C(=O)Nc2ccc(CN3CCN(CC)CC3)c(C(F)(F)F)c2)Cc2cc(Oc3ncnc4[nH]c(C)cc34)cnc21 (centres unmarked) [XIV-4] | < 500
CC[C@@H]1CN(C(=O)Nc2cnc(CN3CCN(CC)CC3)c(C(F)(F)F)c2)Cc2cc(Oc3ccnc4[nH]ccc34)cnc21 [XIV-9] | < 500
CC[C@H]1CN(C(=O)Nc2cnc(CN3CCN(CC)CC3)c(C(F)(F)F)c2)Cc2cc(Oc3ccnc4[nH]ccc34)cnc21 [XIV-10] | < 500
CCN1CCN(Cc2ccc(NC(=O)N3Cc4cc(Oc5ccnc6[nH]c(CO)cc56)cnc4[C@H](C)C3)cc2C(F)(F)F)CC1 [XIV-14] | < 500
CC[C@@H]1CN(C(=O)Nc2ccc(CN3CCN(CC)CC3)c(C(F)(F)F)c2)Cc2cc(Oc3ccnc4[nH]c(C#N)cc34)cnc21 [XIV-19] | < 500
CC[C@H]1CN(C(=O)Nc2ccc(CN3CCN(CC)CC3)c(C(F)(F)F)c2)Cc2cc(Oc3ccnc4[nH]c(C#N)cc34)cnc21 [XIV-20] | < 500
CC[C@H]1CN(C(=O)Nc2ccc(CN3CCN(CC)CC3)c(C(F)(F)F)c2)Cc2cc(Oc3ccnc4[nH]c(CCOC)cc34)cnc21 [XIV-22] | < 500
CC[C@@H]1CN(C(=O)Nc2ccc(CN3CCN(CC)CC3)c(C(F)(F)F)c2)Cc2cc(Oc3ccnc4[nH]c(C5CC5)cc34)cnc21 [XIV-23] | < 500
CC[C@@H]1CN(C(=O)Nc2cnc(CN3CCN(CC)CC3)c(C(F)(F)F)c2)Cc2cc(Oc3ccnc4[nH]c(CCOC)cc34)cnc21 [XIV-26] | < 500
CC[C@@H]1CN(C(=O)Nc2ccc(CN3CCN(CC)CC3)c(C(F)(F)F)c2)Cc2cc(Oc3ccnc4[nH]c(CO)cc34)cnc21 [XIV-28] | < 500
CC[C@@H]1CN(C(=O)Nc2cnc(OC3CCN(C)CC3)c(C(F)(F)F)c2)Cc2cc(Oc3ccnc4[nH]c(CCOC)cc34)cnc21 [XIV-34] | < 500

Results, then the compound that gave them:

IC50 [nM] | Compound
< 500 | CC[C@H]1CN(C(=O)Nc2cnc(OC3CCN(C)CC3)c(C(F)(F)F)c2)Cc2cc(Oc3ccnc4[nH]c(CCOC)cc34)cnc21 [XIV-35]
< 500 | CC[C@@H]1CN(C(=O)Nc2ccc(CN3CCN(CC)CC3)c(C(F)(F)F)c2)Cc2cc(Oc3ncnc4[nH]c(C5CC5)cc34)cnc21 [XIV-37]
< 500 | CC[C@@H]1CN(C(=O)Nc2ccc(CN3CCN(CC)CC3)c(C(F)(F)F)c2)Cc2cc(Oc3c(F)cnc4[nH]c(-c5cnn(C)c5)cc34)cnc21 [XIV-39]
< 500 | CCC1CN(C(=O)Nc2ccc(CN3CCN(CC)CC3)c(C(F)(F)F)c2)Cc2cc(Oc3ccnc4[nH]c(C(C)O)cc34)cnc21 (centres unmarked) [XIV-40]
5000 to 10000 | CCC1CN(C(=O)Nc2ccc(CN3CCN(CC)CC3)c(C(F)(F)F)c2)Cc2cc(Oc3ccnc4[nH]c(C(C)OC)cc34)cnc21 (centres unmarked) [XIV-41]
< 500 | CC[C@@H]1CN(C(=O)Nc2cnc(OC3CCN(C)CC3)c(C(F)(F)F)c2)Cc2cc(Oc3ccnc4[nH]c(C#N)cc34)cnc21 [XIV-42]
< 500 | CC[C@@H]1CN(C(=O)Nc2cnc(OC3CCN(C)CC3)c(C(F)(F)F)c2)Cc2cc(Oc3ccnc4[nH]c(C5CC5)cc34)cnc21 [XIV-43]
< 500 | CC[C@@H]1CN(C(=O)Nc2ccc(CN3CCNCC3)c(C(F)(F)F)c2)Cc2cc(Oc3ccnc4[nH]c(CO)cc34)cnc21 [XIV-45]
< 500 | CC[C@H]1CN(C(=O)Nc2ccc(CN3CCN(C)CC3)c(C(F)(F)F)c2)Cc2cc(Oc3ccnc4[nH]c(CO)cc34)cnc21 [XIV-46]
< 500 | CC[C@H]1CN(C(=O)Nc2ccc(CN3CCN(C)CC3)c(C(F)F)c2)Cc2cc(Oc3ccnc4[nH]c(CO)cc34)cnc21 [XIV-47]
< 500 | CC[C@@H]1CN(C(=O)Nc2ccc(CN3CCNCC3)c(C(F)(F)F)c2)Cc2cc(Oc3ccnc4[nH]c(C5(O)COC5)cc34)cnc21 [XIV-48]
< 500 | CC[C@@H]1CN(C(=O)Nc2ccc(CN3CCN(C)CC3)c(C(F)(F)F)c2)Cc2cc(Oc3ccnc4[nH]c(C5(O)COC5)cc34)cnc21 [XIV-50]
< 500 | CC[C@H]1CN(C(=O)Nc2ccc(CN3CCN(C)CC3)c(C(F)(F)F)c2)Cc2cc(Oc3ccnc4[nH]c(C5(O)COC5)cc34)cnc21 [XIV-51]
< 500 | CC[C@H]1CN(C(=O)Nc2ccc(CN3CCN(C)CC3)c(C(F)F)c2)Cc2cc(Oc3ccnc4[nH]c(C5(O)COC5)cc34)cnc21 [XIV-53]
< 500 | CCC1CN(C(=O)Nc2ccc(CN3CCN(CC)CC3)c(C(F)(F)F)c2)Cc2cc(Oc3ccnc4[nH]c(-c5cnn(C)c5)cc34)cnc21 (centres unmarked) [XIV-54]
< 500 | CC[C@H]1CN(C(=O)Nc2ccc(CN3CCNCC3)c(C(F)(F)F)c2)Cc2cc(Oc3ccnc4[nH]c(CO)cc34)cnc21 [XIV-55]
< 500 | CC[C@@H]1CN(C(=O)Nc2ccc(CN3CCN(C)CC3)c(C(F)(F)F)c2)Cc2cc(Oc3ccnc4[nH]c(CO)cc34)cnc21 [XIV-56]
< 500 | CC[C@H]1CN(C(=O)Nc2ccc(CN3CCNCC3)c(C(F)(F)F)c2)Cc2cc(Oc3ccnc4[nH]c(C5CC5)cc34)cnc21 [XIV-58]
< 500 | CC[C@H]1CN(C(=O)Nc2ccc(CN3CCN(C)CC3)c(C(F)F)c2)Cc2cc(Oc3ccnc4[nH]c(C5CC5)cc34)cnc21 [XIV-59]
< 500 | CC[C@H]1CN(C(=O)Nc2ccc(CN3CCN(CCO)CC3)c(C(F)(F)F)c2)Cc2cc(Oc3ccnc4[nH]c(C5CC5)cc34)cnc21 [XIV-60]
< 500 | CCC1CN(C(=O)Nc2ccc(CN3CCN(CC)CC3)c(C(F)(F)F)c2)Cc2cc(Oc3ccnc4[nH]c(C5=CCOCC5)cc34)cnc21 (centres unmarked) [XIV-61]
< 500 | CCC1CN(C(=O)Nc2ccc(CN3CCN(CC)CC3)c(C(F)(F)F)c2)Cc2cc(Oc3ccnc4[nH]c(C5=CCOC5)cc34)cnc21 (centres unmarked) [XIV-62]
< 500 | CCC1CN(C(=O)Nc2ccc(CN3CCN(CC)CC3)c(C(F)(F)F)c2)Cc2cc(Oc3ccnc4[nH]c(C5CCOC5)cc34)cnc21 (centres unmarked) [XIV-63]
